{"source": "patent US5202315A", "about": "“Cephalosporin compounds” (Lucky, Ltd., priority 1989, dated 1993)", "key": {"[1]": {"assay": "In-vivo absorbency (plasma concentrations & pharmacokinetic parameters)", "design": "species or system SD rat (male)", "details": "plasma, SD male rat, iv 20 mg/kg, read-out: Plasma Conc."}, "Pseudomonas": {"tested_on": "Pseudomonas", "assay": "Antibacterial activity", "format": "cell-based", "details": "statement in words"}, "[2]": {"tested_on": "Escherichia coli ATCC 25922", "assay": "Antibacterial activity, MIC", "format": "cell-based", "details": "ATCC25922, agar two-fold dilution, 37° C., 20 hours", "method_in_brief": "(§1)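 Agar two-fold dilution method: compound serially diluted two-fold in Mueller-Hinton agar, spotted with 2 μl of a 10^7 CFU/ml inoculum of each standard strain, then incubated at 37 °C for 20 h.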"}, "[3]": {"tested_on": "Micrococcus luteus ATCC 9341", "assay": "Antibacterial activity, MIC", "format": "cell-based", "details": "ATCC9341, ATCC 9341, agar two-fold dilution, 37° C., 20 hours, read-out: MIC", "method_in_brief": "as §1"}, "[4]": {"tested_on": "Bacillus megaterium ATCC 9885", "assay": "Antibacterial activity, MIC", "format": "cell-based", "details": "Priestia megaterium, ATCC9885; ATCC 9885; agar two-fold dilution, 37° C., 20 hours; read-out: MIC", "method_in_brief": "as §1"}, "[5]": {"tested_on": "Proteus mirabilis ATCC 25933", "assay": "Antibacterial activity, MIC", "format": "cell-based", "details": "ATCC25933, ATCC 25933, agar two-fold dilution, 37° C., 20 hours, read-out: MIC", "method_in_brief": "as §1"}, "[6]": {"tested_on": "Streptococcus faecalis ATCC 29212", "assay": "Antibacterial activity, MIC", "format": "cell-based", "details": "Enterococcus faecalis, ATCC29212; ATCC 29212; agar two-fold dilution, 37° C., 20 hours; read-out: MIC", "method_in_brief": "as §1"}, "[7]": {"tested_on": "Shigella sonnei ATCC 11060", "assay": "Antibacterial activity, MIC", "format": "cell-based", "details": "ATCC11060, ATCC 11060, agar two-fold dilution, 37° C., 20 hours, read-out: MIC", "method_in_brief": "as §1"}, "[8]": {"tested_on": "Pseudomonas aeruginosa ATCC 27853", "assay": "Antibacterial activity, MIC", "format": "cell-based", "details": "ATCC27853, ATCC 27853, agar two-fold dilution, 37° C., 20 hours, read-out: MIC", "method_in_brief": "as §1"}, "[9]": {"tested_on": "Staphylococcus aureus ATCC 10537", "assay": "Antibacterial activity, MIC", "format": "cell-based", "details": "ATCC10537, ATCC 10537, agar two-fold dilution, 37° C., 20 hours, read-out: MIC", "method_in_brief": "as §1"}, "[10]": {"tested_on": "Escherichia coli ATCC 10536", "assay": "Antibacterial activity, MIC", "format": "cell-based", "details": "ATCC10536, agar two-fold dilution, 37° C., 20 hours", "method_in_brief": "as §1"}, "[11]": {"tested_on": "Shigella flexneri ATCC 11836", "assay": "Antibacterial activity, MIC", "format": "cell-based", "details": "ATCC11836, agar two-fold dilution, 37° C., 20 hours", "method_in_brief": "as §1"}, "[12]": {"tested_on": "Pseudomonas aeruginosa ATCC 25619", "assay": "Antibacterial activity, MIC", "format": "cell-based", "details": "ATCC25619, ATCC 25619, agar two-fold dilution, 37° C., 20 hours, read-out: MIC", "method_in_brief": "as §1"}, "[13]": {"tested_on": "Citrobacter freundii ATCC 8090", "assay": "Antibacterial activity, MIC", "format": "cell-based", "details": "ATCC8090, ATCC 8090, agar two-fold dilution, 37° C., 20 hours, read-out: MIC", "method_in_brief": "as §1"}, "[14]": {"tested_on": "Klebsiella pneumoniae ATCC 10031", "assay": "Antibacterial activity, MIC", "format": "cell-based", "details": "ATCC10031, ATCC 10031, agar two-fold dilution, 37° C., 20 hours, read-out: MIC", "method_in_brief": "as §1"}, "[15]": {"tested_on": "Staphylococcus aureus ATCC 6538p", "assay": "Antibacterial activity, MIC", "format": "cell-based", "details": "ATCC6538P, ATCC 6538p, agar two-fold dilution, 37° C., 20 hours, read-out: MIC", "method_in_brief": "as §1"}, "[16]": {"tested_on": "Morganella morganii ATCC 8076h", "assay": "Antibacterial activity, MIC", "format": "cell-based", "details": "ATCC8076H, agar two-fold dilution, 37° C., 20 hours", "method_in_brief": "as §1"}, "[17]": {"tested_on": "Providencia rettgeri ATCC 9250", "assay": "Antibacterial activity, MIC", "format": "cell-based", "details": "ATCC9250, agar two-fold dilution, 37° C., 20 hours", "method_in_brief": "as §1"}, "[18]": {"tested_on": "Serratia marcescens ATCC 27117", "assay": "Antibacterial activity, MIC", "format": "cell-based", "details": "ATCC27117, ATCC 27117, agar two-fold dilution, 37° C., 20 hours, read-out: MIC", "method_in_brief": "as §1"}, "[19]": {"tested_on": "Staphylococcus epidermidis ATCC 12228", "assay": "Antibacterial activity, MIC", "format": "cell-based", "details": "ATCC12228, ATCC 12228, agar two-fold dilution, 37° C., 20 hours, read-out: MIC", "method_in_brief": "as §1"}, "[20]": {"tested_on": "Acinetobacter calcoaceticus ATCC 15473", "assay": "Antibacterial activity, MIC", "format": "cell-based", "details": "ATCC15473, ATCC 15473, agar two-fold dilution, 37° C., 20 hours, read-out: MIC", "method_in_brief": "as §1"}, "[21]": {"tested_on": "Pseudomonas aeruginosa ATCC 10145", "assay": "Antibacterial activity, MIC", "format": "cell-based", "details": "ATCC10145, ATCC 10145, agar two-fold dilution, 37° C., 20 hours, read-out: MIC", "method_in_brief": "as §1"}, "[22]": {"tested_on": "Bacillus cereus ATCC 11778", "assay": "Antibacterial activity, MIC", "format": "cell-based", "details": "ATCC11778, ATCC 11778, agar two-fold dilution, 37° C., 20 hours, read-out: MIC", "method_in_brief": "as §1"}, "[23]": {"tested_on": "Proteus vulgaris ATCC 6059", "assay": "Antibacterial activity, MIC", "format": "cell-based", "details": "ATCC6059, ATCC 6059, agar two-fold dilution, 37° C., 20 hours, read-out: MIC", "method_in_brief": "as §1"}, "[24]": {"tested_on": "Enterobacter cloacae ATCC 27508", "assay": "Antibacterial activity, MIC", "format": "cell-based", "details": "ATCC27508, ATCC 27508, agar two-fold dilution, 37° C., 20 hours, read-out: MIC", "method_in_brief": "as §1"}, "[25]": {"tested_on": "Salmonella typhimurium ATCC 14028", "assay": "Antibacterial activity, MIC", "format": "cell-based", "details": "Salmonella enterica; ATCC 14028; agar two-fold dilution, 37° C., 20 hours; read-out: MIC", "method_in_brief": "as §1"}, "[26]": {"tested_on": "Enterobacter aerogenes ATCC 29751", "assay": "Antibacterial activity, MIC", "format": "cell-based", "details": "Klebsiella aerogenes, ATCC29751; ATCC 29751; agar two-fold dilution, 37° C., 20 hours; read-out: MIC", "method_in_brief": "as §1"}, "[27]": {"assay": "In-vivo absorbency (plasma concentrations & pharmacokinetic parameters)", "design": "species or system SD rat (male)", "details": "plasma, SD male rat, iv 20 mg/kg; for half-life: rat, iv, 20 mg/kg", "excerpt": "The blood samples from the femoral vein of the rats were taken every hour after administration, and analyzed by bio-assay(agar well method).\nTested animal: SD male Rat (220~340 g)"}}, "note": "Read-outs that look alike come from different tables or passages of the source."}
{"molecule": "CC(C)(O/N=C(\\C(=O)NC1C(=O)N2C(C(=O)[O-])=C(CSc3nc(N)cc(N)[n+]3N)CS[C@H]12)c1csc(N)n1)C(=O)O", "note": "(stereo partly shown) [Compound I-15, 7-[(Z)-2-(2-aminothiazol-4-yl)-2-(2-carboxyprop-2-oxyimino)acetamido]-3-(1,4,6-triaminopyrimidinium-2-yl) thiomethyl-3-cephem-4-carboxylate]", "values": [{"measurement": "concentration at 1 min", "setting": "[1]; 1 min", "result": 148000, "unit": "ng/mL"}, {"measurement": "concentration at 2.5 min", "setting": "[1]; 2.5 min", "result": 104000, "unit": "ng/mL"}, {"measurement": "concentration at 5 min", "setting": "[1]; 5 min", "result": 71000, "unit": "ng/mL"}, {"measurement": "concentration at 10 min", "setting": "[1]; 10 min", "result": 53000, "unit": "ng/mL"}, {"measurement": "concentration at 20 min", "setting": "[1]; 20 min", "result": 22000, "unit": "ng/mL"}, {"measurement": "concentration at 40 min", "setting": "[1]; 40 min", "result": 10000, "unit": "ng/mL"}, {"measurement": "antibacterial activities, especially against Pseudomonas", "setting": "Pseudomonas", "result": "excellent"}, {"measurement": "MIC", "setting": "[2]", "result": 0.063, "unit": "µg/mL"}, {"measurement": "MIC", "setting": "[3]", "result": 0.25, "unit": "µg/mL"}, {"measurement": "MIC", "setting": "[4]", "result": 0.5, "unit": "µg/mL"}, {"measurement": "MIC", "setting": "[5]", "result": 0.016, "unit": "µg/mL"}, {"measurement": "MIC", "setting": "[6]", "result": "> 128", "unit": "µg/mL"}, {"measurement": "MIC", "setting": "[7]", "result": 0.063, "unit": "µg/mL"}, {"measurement": "MIC", "setting": "[8]", "result": 1, "unit": "µg/mL"}, {"measurement": "MIC", "setting": "[9]", "result": 2, "unit": "µg/mL"}, {"measurement": "MIC", "setting": "[10]", "result": 0.063, "unit": "µg/mL"}, {"measurement": "MIC", "setting": "[11]", "result": 0.031, "unit": "µg/mL"}, {"measurement": "MIC", "setting": "[12]", "result": 1, "unit": "µg/mL"}, {"measurement": "MIC", "setting": "[13]", "result": 0.063, "unit": "µg/mL"}, {"measurement": "MIC", "setting": "[14]", "result": 0.063, "unit": "µg/mL"}, {"measurement": "MIC", "setting": "[15]", "result": 4, "unit": "µg/mL"}, {"measurement": "MIC", "setting": "[16]", "result": "≤ 0.008", "unit": "µg/mL"}, {"measurement": "MIC", "setting": "[17]", "result": "≤ 0.008", "unit": "µg/mL"}, {"measurement": "MIC", "setting": "[18]", "result": 0.063, "unit": "µg/mL"}, {"measurement": "MIC", "setting": "[19]", "result": 2, "unit": "µg/mL"}, {"measurement": "MIC", "setting": "[20]", "result": 2, "unit": "µg/mL"}, {"measurement": "MIC", "setting": "[21]", "result": 1, "unit": "µg/mL"}, {"measurement": "MIC", "setting": "[22]", "result": 64, "unit": "µg/mL"}, {"measurement": "MIC", "setting": "[23]", "result": 0.016, "unit": "µg/mL"}, {"measurement": "MIC", "setting": "[24]", "result": 0.016, "unit": "µg/mL"}, {"measurement": "MIC", "setting": "[25]", "result": 0.13, "unit": "µg/mL"}, {"measurement": "MIC", "setting": "[26]", "result": 1, "unit": "µg/mL"}, {"measurement": "concentration at 1 h", "setting": "[27]; 60 min, read-out: Plasma Conc.", "result": 2400, "unit": "ng/mL"}, {"measurement": "concentration at 2 h", "setting": "[27]; 120 min, read-out: Plasma Conc.", "result": 600, "unit": "ng/mL"}, {"measurement": "AUC", "setting": "[27]; two compartment model", "result": 43400, "unit": "ng·h/mL"}, {"measurement": "half-life", "setting": "[27]; two compartment model, read-out: T1/2 (α)", "result": 3, "unit": "min"}, {"measurement": "half-life", "setting": "[27]; two compartment model, read-out: T1/2 (β)", "result": 29, "unit": "min"}]}
